Assay results reported in ChEMBL document CHEMBL1201862, “PubChem BioAssay data set” (2004).
Calls of active or inactive are those of the source.

What was measured:
[1] = Luminescence Cell-Based Dose Response HTS to Identify Inhibitors of 5'UTR Stem-Loop Driven Prion Protein mRNA Translation in H4 Neuroglioblastoma Cells. [Related pubchem assays: 1827 (Project Summary), 1813 (Primary HTS)]; assay type: functional
[2] = Vero cell cytotoxicity, dose response, cytotoxicity control for Vif-APOBEC3G degradation inhibitor project, Vero cells (AID 1117358); assay type: functional; conditions: Human immunodeficiency virus 1, Vero
[3] = inhibitors of firefly luciferase expression or activity, dose response, H4 neuroglioma cells, luminescence (AID 1990); assay type: functional, cell-based
[4] = inhibitors of SNCA 5'UTR-driven reporter translation, confirmation, H4 neuroglioma cells, luminescence (AID 1988); assay type: functional, cell-based
[5] = M. tuberculosis growth inhibition, HTS (AID 449762); assay type: functional
[6] = microbe, parasite or virus in culture; assay type: functional; conditions: Mycobacterium tuberculosis
[7] = target: Heat shock protein HSP 90-alpha (Homo sapiens, UniProt P07900); assay: Luminescence-based dose response biochemical high throughput screening assay for inhibitors of the Heat Shock Protein 90 (HSP90). [Related pubchem assays: 1831 (Summary AID.), 1846 (Confirmation screen.), 1789 (Primary screen.)]
[8] = cytotoxicity in HEK-293T cells, dose response, cytotoxicity control for BCR NF-kB inhibitor project, luminescence, B-cell screen hits (AID 489021); assay type: functional, cell-based;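 further: HEK-293T cells carrying an NF-kB luciferase reporter; cells exposed to compound for about 14 hours before viability readout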
[9] = PAX5 activity inhibitors, dose response, selectivity assay for PAX8 inhibitor project, cell-based, plate reader, dry powder samples (AID 743047); assay type: functional;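 further: HEK293 cells carrying a Pax5 driven CD19 promoter luciferase reporter; potency of inhibitors that lower reporter luminescence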
[10] = PAX2 cell-based inhibition, dose response, selectivity assay for PAX8 inhibitor project, plate reader, dry powder samples (AID 743048); assay type: functional;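 further: HEK293 cells carrying a WT1 promoter luciferase reporter driven by expressed Pax2; potency is for inhibition of Pax2 driven reporter signal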
[11] = MC4R antagonists, dose response, counter-screen for LGR2 antagonist project, cell-based, plate reader, cherry pick (AID 743444); assay type: functional;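 further: transfected HEK 293 cells stimulated with alpha-MSH peptide; potency of inhibitors of the alpha-MSH evoked signal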
[12] = inhibitors of clade B AD8 Env fusion, dose response, cell-based, cherry-pick (AID 652062); assay type: functional;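 further: luciferase signal from cell-cell fusion driven by HIV-1 clade B AD8 Env; potency is for inhibitors of fusion seen as a drop in luminescence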
[13] = LGR2 antagonists, dose response, cell-based, HEK293, CRE-luciferase reporter, cherry pick, set 2 (AID 743343); assay type: functional;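 further: transfected cells were stimulated with diluted bursicon conditioned medium after compound addition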
[14] = inhibitors of HIV Env-driven cell fusion, dose response, cherry-pick (AID 652057); assay type: functional, cell-based
[15] = ZM109 Env clade C HIV-1 fusion inhibitors, dose response, HeLa effector, CEM target cells, luciferase, cherry-pick (AID 652058); assay type: functional, cell-based
[16] = cytotoxicity dependent on PAX8, dose response, cell-based, plate reader, dry powder (AID 743049); assay type: functional
[17] = off-target signal loss in HeLa-CEM21 co-culture – HeLa F-luc CTL cells, cherry-picked, counter-screen for HIV-1 Env fusion inhibitor project, dose response (AID 652040); assay type: functional, cell-based;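 further: potency for signal decrease marking cytotoxic or nonspecific inhibition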
Paired box protein Pax-8 = Paired box protein Pax-8 (Homo sapiens, UniProt Q06710); assay: inhibitors of PAX8-driven TPO luciferase reporter, dose response, RMG-I cells, cherry-pick (AID 687027); assay type: functional, cell-based;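 further: luciferase reporter driven by Pax8 target thyroperoxidase promoter measured by SteadyGlo luminescence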
Chain of Paired box protein Pax-8 (Q06710 whole entry): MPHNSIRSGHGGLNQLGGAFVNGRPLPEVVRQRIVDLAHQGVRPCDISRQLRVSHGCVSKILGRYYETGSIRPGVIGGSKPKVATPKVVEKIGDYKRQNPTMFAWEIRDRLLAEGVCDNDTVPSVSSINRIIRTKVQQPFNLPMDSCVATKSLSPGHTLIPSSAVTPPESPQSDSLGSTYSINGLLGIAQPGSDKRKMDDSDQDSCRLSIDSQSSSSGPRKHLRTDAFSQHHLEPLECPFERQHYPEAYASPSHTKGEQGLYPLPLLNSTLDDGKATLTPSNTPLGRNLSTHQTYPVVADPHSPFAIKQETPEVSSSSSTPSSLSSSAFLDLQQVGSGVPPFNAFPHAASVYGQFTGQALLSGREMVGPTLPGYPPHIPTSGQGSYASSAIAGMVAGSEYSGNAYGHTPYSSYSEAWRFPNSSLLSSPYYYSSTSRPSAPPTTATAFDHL

For `COc1cc(NC(=O)NCCN2CCN(c3ccc(Cl)cc3)CC2)ccc1C`, the EC50 [1] was > 120 µM (not active), the CC50 [2] was > 40 µM (active) and the EC50 [3] was 20.5 µM (active). The EC50 [4] was > 120 µM (not active).
In the case of `C/C(=N\NC(=O)c1cc2c(s1)CCC(C)C2)c1ccncc1` (stereo not drawn), the IC50 [5] is reported as > 100 µM (active) and the CC50 [6] is reported as > 40 µM (active).
In the case of `CC(=O)CSc1nnc(-c2ccc3c(c2)OCO3)o1`, the IC50 [7] is reported as 9.39 µM (active).
In the case of `CCCc1ncc(CN2CCCC(C(=O)Nc3ccc(-c4cccc(OC)c4)cc3)C2)cn1` (stereo not drawn), the IC50 [5] is reported as > 100 µM (active).
In the case of `O=C(CN1C(=O)c2ccccc2S1(=O)=O)c1ccccc1Cl`, the IC50 [8] is reported as > 80 µM (inactive), the EC50 [1] is reported as 0.364 µM (active) and the AC50 [9] is reported as 7.1 µM (active). The AC50 [10] was 9.61 µM (active), the AC50 [11] was 0.805 µM (active) and the IC50 [7] was 4.2 µM (active). For the same compound, the AC50 [12] was 4.22 µM (active), the AC50 [13] was 0.665 µM (active) and the AC50 [14] was 2.17 µM (active). For the same compound, the AC50 [15] was 12.5 µM (active), the EC50 [3] was 0.283 µM (active) and the AC50 [16] was > 100 µM (inactive). For the same compound, the AC50 [17] was 1.52 µM (active), the EC50 [4] was 0.104 µM (active) and the AC50 (Paired box protein Pax-8) was 7.18 µM (active).
